How the values were obtained:
[1] = system: activated platelets in whole blood; experiment: PDA liposome-9F9 microarray detection of activated platelets in whole blood; format: cell-based, human
Description: To fabricate the PDA liposome Microarray, the liposomes were covalently immobilized on amine-modified glass slides through the amine-epoxy chemistry. 0.5 mM PDA-epoxy liposome solution was spotted on amine-coated glass slides with a manual microarrayer (VP 475, V&P scientific, INC) and was incubated at 5° C. for 24 hrs to prevent fast drying of the spotted solution. After removing the unbound liposomes by rinsing with 5 mM of pH 8 HEPES buffer, the PDA liposome-spotted slides were incubated with 0.06 mg/ml of 9F9 antibody in 5 mM of pH 8 HEPES buffer for 1 hr. After removing the unbound antibodies by rinsing with 5 mM of pH 8 HEPES buffer. […]
Detection of Activated Platelet with PDA Liposome Microarray. […] After 20 mins of incubation, fluorescence microscope images were obtained on Olympus BX 71 microscope equipped with a mercury lamp and a cut-off filter of 540 nm excitation and 600 nm emission. For fluorescence signal intensity measurement, the fabricated PDA liposome-9F9 microarray was placed on top of a 96-well plate and the combined substrates were inserted into a plate reader. Fluorescence emission intensities at 634 nm of total 120 microarray spots from three different devices were individually measured by using the excitation wavelength of 548 nm. […]

[2] = system: collagen and epinephrine stimulated human platelets; experiment: cells; settings: Platelet, read-out: IC50 of inhibition of collagen-stimulated platelet activation
Description: Fluorescence-activated Cell Sorting Analysis. […] Collagen (40 μg/ml) was then added (4 μl) and incubated for 2 min at room temperature in all tubes. Platelet activation was measured by using 20 μl of the anti-9F9 antibody-FITC and 10 μl of the constitutive platelet marker, anti-CD61-PE (Phycierythrin). As a control for the anti-9F9 antibody, 10 μl of the isotype control, anti-mouse IgG1-FITC, was used with 10 μl of anti-CD61-PE in a separate tube. The antibodies were incubated at room temperature in the dark for 15 minutes. After the incubation, 700 μl of 1% formalin/dPBS was added to each tube and stored at 4° C. for up to 24 hrs post fixing until ready to run the fluorescence-activated cell sorting (FACS) analysis on a FACSCalibur flow cytometer (Beckton Dickenson San Jose, Calif.). CellQuest software (Beckton Dickenson San Jose, Calif.) was employed for the data analysis.
Cell populations were identified for data collection by their log forward scatter (FSC) and log side scatter (SSC) light profiles. […] Mean fluorescence intensity (MFI) of the anti-9F9 immunostaining was quantitated by a FITC (FL1) versus PE (FL2) log plot analysis. […] The adjusted WI was expressed as the geometric mean channel fluorescence minus the appropriate isotype control. The platelet reactivity index (PRI) was calculated by the following equation: […]

| IC50 [2] | Compound | limit of detection of Tirofiban in the sample (fluorescence signal decrease) ([1]; whole blood with collagen, 20 mins incubation, PDA microarray fluorescence (FIG. 3)) | red fluorescence intensity with added collagen relative to device without it ([1]; whole blood samples with and without 40 mg/ml of collagen, 20-min incubation (FIG. 2)) |
| --- | --- | --- | --- |
| ~1.5 pM | CCCCS(=O)(=O)N[C@@H](Cc1ccc(OCCCCC2CCNCC2)cc1)C(=O)O [Tirofiban] | 0.16 µM | – |
| – | collagen | – | 2.8 times |

Source: US20230067926A1, “SYSTEMS AND METHODS FOR MONITORING PLATELET ACTIVATION” (The Regents of the University of Michigan, priority 2021, published 2023)
